# Reference: patent US6737383B1, “Herbicidal oxadiazolidines” (priority 1999, dated 2004)
# What was measured:
# velvetleaf = assay: Test B pre/postemergence velvetleaf; type: in vivo, Abutilon theophrasti
# How it was run: (§1)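 Herbicidal effect was estimated by eye on a ten-point control scale after plants spent twelve to sixteen days in a greenhouse following soil or foliar treatment. Foliar sprays targeted plants at one to four leaves; all doses were formulated in a non-phytotoxic solvent with surfactant.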
# cocklebur = assay: Test B pre/postemergence cocklebur; type: in vivo, Xanthium strumarium
# How it was run: as §1
# soybean = assay: Test B pre/postemergence soybean; type: in vivo, Glycine max
# How it was run: as §1
# duck salad = assay: Test B flood test duck salad; type: in vivo, Heteranthera limosa; details: for Plant response rating, Ducksalad (0 to 10 scale, 0 is no effect, 10 is complete control) / Ducksalad plant response rating (0 to 10 scale, 0 is no effect, 10 is complete control): visual evaluation after twelve to sixteen days; for Ducksalad plant response rating (0 to 10 scale, 0 is no effect, 10 is complete control): under heading Pre-emergence
# How it was run: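 Read-out is a visual response score from 0 (no effect) to 10 (complete control), assigned by comparison with untreated controls. Treatment was applied at the 2-leaf stage, and plants stayed in the greenhouse for twelve to sixteen days before scoring.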
# [1] = Preemergence, Rate 31 g/ha, visual rating, scale 0 to 10 (0 no effect, 10 complete control)
# [2] = Preemergence, Rate 62 g/ha, scale of 0 to 10 where 0 is no effect and 10 is complete control
# [3] = Preemergence, Rate 250 g/ha, scale of 0 to 10 where 0 is no effect and 10 is complete control
# [4] = Rate 62 g/ha, Postemergence, scale of 0 to 10 where 0 is no effect and 10 is complete control
# [5] = Rate 125 g/ha, Postemergence, scale 0 to 10
# [6] = Rate 125 g/ha, Preemergence, scale of 0 to 10 where 0 is no effect and 10 is complete control
# [7] = Rate 31 g/ha, Pre-emergence section (flood test species), scale 0 to 10
# [8] = Rate 62 g/ha, headed Pre-emergence (flood test species), scale 0 to 10 (0 no effect, 10 complete control)
# [9] = Rate 125 g/ha, Pre-emergence, flood test species, scale 0 to 10 where 0 is no effect and 10 is complete control
# [10] = Rate 250 g/ha, Pre-emergence, flood-test species, scale 0 to 10, 0 is no effect, 10 is complete control
# [11] = Preemergence, Rate 500 g/ha, scale of 0 to 10 where 0 is no effect and 10 is complete control
# [12] = Rate 62 g/ha, Postemergence, scale 0 to 10 (0 no effect, 10 complete control)
# [13] = Rate 125 g/ha, Postemergence, scale of 0 to 10 where 0 is no effect and 10 is complete control
# [14] = Rate 250 g/ha, Postemergence, scale of 0 to 10 where 0 is no effect and 10 is complete control
# [15] = Rate 500 g/ha, Postemergence, scale 0 to 10, 0 no effect, 10 complete control
# [16] = Rate 500 g/ha, Pre-emergence, flood test species, scale 0 to 10 (0 no effect, 10 complete control)
# [17] = Postemergence, Rate 62 g/ha, scale 0 to 10, 0 is no effect, 10 is complete control
# [18] = Postemergence, Rate 125 g/ha, scale of 0 to 10 where 0 is no effect and 10 is complete control
# [19] = Preemergence, Rate 125 g/ha, scale of 0 to 10 where 0 is no effect and 10 is complete control
# [20] = Preemergence, Rate 250 g/ha, scale 0 to 10 (0 no effect, 10 complete control)
# [21] = Rate 500 g/ha, Postemergence, scale 0 to 10, 0 is no effect, 10 is complete control
# [22] = Rate 62 g/ha, flood test species, Pre-emergence
# [23] = Rate 125 g/ha, flood test species
# [24] = Rate 250 g/ha, Pre-emergence (flood test species), scale 0 to 10, 0 is no effect, 10 is complete control
# [25] = Postemergence, Rate 250 g/ha, scale 0 to 10, 0 no effect, 10 complete control
# [26] = Preemergence, Rate 62 g/ha, scale 0 to 10, 0 is no effect, 10 is complete control
# [27] = Preemergence, Rate 125 g/ha, scale 0 to 10 (0 no effect, 10 complete control)
# [28] = Preemergence, Rate 500 g/ha, scale 0 (no effect) to 10 (complete control)
# [29] = Rate 125 g/ha, Postemergence, scale 0 to 10, 0 no effect, 10 complete control
# [30] = Postemergence, Rate 31 g/ha, visual rating, scale 0 to 10 (0 no effect, 10 complete control)
# [31] = Postemergence, Rate 250 g/ha, scale 0 to 10
# [32] = Preemergence, Rate 250 g/ha, scale 0 to 10, 0 is no effect, 10 is complete control
# [33] = Rate 125 g/ha, Postemergence, scale 0 to 10, 0 is no effect, 10 is complete control
structure (smiles),measurement,setting,value
CC(=O)Cn1c(=O)on(C(=O)N(c2ccc(F)cc2)C(C)C)c1=O [Compound 217],Velvetleaf plant response rating,velvetleaf; [1],0
same,Velvetleaf plant response rating,velvetleaf; [2],0
same,Velvetleaf plant response rating,velvetleaf; [3],5
same,Velvetleaf plant response rating,velvetleaf; [4],0
same,Velvetleaf plant response rating,velvetleaf; [5],0
same,Velvetleaf plant response rating,velvetleaf; [6],1
same,"Plant response rating (0 to 10; 0 is no effect, 10 is complete control), Velvetleaf","velvetleaf; Rate 250 g/ha, Postemergence",0
same,Cocklebur plant response rating,cocklebur; [1],0
same,Cocklebur plant response rating,cocklebur; [2],0
same,Cocklebur plant response rating,cocklebur; [3],0
same,Cocklebur plant response rating,"cocklebur; Rate 31 g/ha, Postemergence, scale 0 to 10",0
same,Cocklebur plant response rating,cocklebur; [4],0
same,Cocklebur plant response rating,cocklebur; [5],0
same,Cocklebur plant response rating,cocklebur; [6],0
same,"Plant response rating (0 to 10; 0 is no effect, 10 is complete control), Cocklebur","cocklebur; Rate 250 g/ha, Postemergence",0
same,Soybean plant response rating,soybean; [1],0
same,Soybean plant response rating,soybean; [2],0
same,Soybean plant response rating,soybean; [3],0
same,Soybean plant response rating,soybean; [4],1
same,Soybean plant response rating,soybean; [5],1
same,Soybean plant response rating,soybean; [6],0
same,"Plant response rating (0 to 10; 0 is no effect, 10 is complete control), Soybean","soybean; Rate 250 g/ha, Postemergence",1
same,Ducksalad plant response rating,duck salad; [7],0
same,Ducksalad plant response rating,duck salad; [8],0
same,Ducksalad plant response rating,duck salad; [9],0
same,Ducksalad plant response rating,duck salad; [10],0
C=CCn1c(=O)on(C(=O)N(c2ccc(Cl)cc2)C(C)C2CC2)c1=O (stereo not drawn) [Compound 325],Velvetleaf plant response rating,velvetleaf; [2],0
same,Velvetleaf plant response rating (0 to 10 scale),"velvetleaf; Preemergence, Rate 125 g/ha",0
same,Velvetleaf plant response rating,velvetleaf; [3],0
same,Velvetleaf plant response rating,velvetleaf; [11],0
same,Velvetleaf plant response rating,velvetleaf; [12],0
same,Velvetleaf plant response rating,velvetleaf; [13],0
same,"Plant response rating, Velvetleaf",velvetleaf; [14],0
same,"Plant response rating, Velvetleaf",velvetleaf; [15],2
same,Cocklebur plant response rating,cocklebur; [2],0
same,Cocklebur plant response rating (0 to 10 scale),"cocklebur; Preemergence, Rate 125 g/ha",0
same,Cocklebur plant response rating,cocklebur; [3],0
same,Cocklebur plant response rating,cocklebur; [11],0
same,Cocklebur plant response rating,cocklebur; [12],0
same,Cocklebur plant response rating,cocklebur; [13],0
same,"Plant response rating, Cocklebur",cocklebur; [14],0
same,"Plant response rating, Cocklebur",cocklebur; [15],3
same,Soybean plant response rating,soybean; [2],0
same,Soybean plant response rating (0 to 10 scale),"soybean; Preemergence, Rate 125 g/ha",0
same,Soybean plant response rating,soybean; [3],0
same,Soybean plant response rating,soybean; [11],0
same,Soybean plant response rating,soybean; [12],2
same,Soybean plant response rating,soybean; [13],2
same,"Plant response rating, Soybean",soybean; [14],1
same,"Plant response rating, Soybean",soybean; [15],3
same,Ducksalad plant response rating,duck salad; [8],0
same,Ducksalad plant response rating,duck salad; [9],0
same,Ducksalad plant response rating,duck salad; [10],0
same,Ducksalad plant response rating,duck salad; [16],0
C=C(Cc1ccccc1)Cn1c(=O)on(C(=O)N(c2ccccc2)C(C)C)c1=O [Compound 650],"Plant response rating, Velvetleaf",velvetleaf; [17],0
same,Velvetleaf plant response rating,velvetleaf; [18],0
same,Velvetleaf plant response rating,velvetleaf; [2],0
same,Velvetleaf plant response rating,velvetleaf; [19],0
same,"Plant response rating, Velvetleaf",velvetleaf; [20],0
same,"Plant response rating, Velvetleaf",velvetleaf; [11],0
same,Velvetleaf plant response rating,velvetleaf; [21],2
same,"Plant response rating, Cocklebur",cocklebur; [17],0
same,Cocklebur plant response rating,cocklebur; [18],0
same,Cocklebur plant response rating,"cocklebur; Postemergence, Rate 250 g/ha, scale of 0 to 10, 0 is no effect, 10 is complete control",0
same,Cocklebur plant response rating,cocklebur; [2],0
same,Cocklebur plant response rating,cocklebur; [19],0
same,"Plant response rating, Cocklebur",cocklebur; [20],0
same,"Plant response rating, Cocklebur",cocklebur; [11],0
same,Cocklebur plant response rating,cocklebur; [21],0
same,"Plant response rating, Soybean",soybean; [17],2
same,Soybean plant response rating,soybean; [18],4
same,Soybean plant response rating,soybean; [2],0
same,Soybean plant response rating,soybean; [19],0
same,"Plant response rating, Soybean",soybean; [20],0
same,"Plant response rating, Soybean",soybean; [11],0
same,Soybean plant response rating,soybean; [21],5
same,"Plant response rating, Ducksalad (0 to 10 scale, 0 is no effect, 10 is complete control)",duck salad; [22],0
same,"Ducksalad plant response rating (0 to 10 scale, 0 is no effect, 10 is complete control)",duck salad; [23],0
same,Ducksalad plant response rating,duck salad; [24],0
same,Ducksalad plant response rating,"duck salad; Rate 500 g/ha, Pre-emergence section of Table B, 0 to 10 scale (0 no effect, 10 complete control)",0
CCc1cccc(C)c1-n1c(=O)on(C(=O)N(c2ccc(F)cc2)C(C)C)c1=O [Compound 52],Velvetleaf plant response rating,velvetleaf; [17],0
same,Velvetleaf plant response rating,velvetleaf; [25],0
same,"Plant response rating, Velvetleaf",velvetleaf; [26],0
same,"Plant response rating, Velvetleaf",velvetleaf; [27],0
same,"Plant response rating, Velvetleaf",velvetleaf; [3],0
same,Velvetleaf plant response rating,velvetleaf; [28],0
same,Velvetleaf plant response rating,velvetleaf; [29],0
same,Velvetleaf plant response rating,velvetleaf; [15],0
same,Cocklebur plant response rating,cocklebur; [17],0
same,Cocklebur plant response rating,cocklebur; [25],0
same,"Plant response rating, Cocklebur",cocklebur; [26],0
same,"Plant response rating, Cocklebur",cocklebur; [27],0
same,"Plant response rating, Cocklebur",cocklebur; [3],0
same,Cocklebur plant response rating,cocklebur; [29],0
same,Cocklebur plant response rating,cocklebur; [15],0
same,Soybean plant response rating,soybean; [17],2
same,Soybean plant response rating,soybean; [25],2
same,"Plant response rating, Soybean",soybean; [26],0
same,"Plant response rating, Soybean",soybean; [27],0
same,"Plant response rating, Soybean",soybean; [3],0
same,Soybean plant response rating,soybean; [28],0
same,Soybean plant response rating,soybean; [29],2
same,Soybean plant response rating,soybean; [15],2
same,Ducksalad plant response rating,duck salad; [17],0
same,Ducksalad plant response rating,"duck salad; Rate 125 g/ha, Postemergence section (flood test species), scale 0 to 10, 0 no effect, 10 complete control",0
same,Ducksalad plant response rating,"duck salad; Rate 500 g/ha, listed under Postemergence (flood test species), scale 0 to 10, 0 no effect, 10 complete control",0
same,Ducksalad plant response rating,"duck salad; flood test, listed under Postemergence, Rate 250 g/ha, scale 0 to 10, 0 no effect, 10 complete control",0
Cc1nc(C)c(C(C)n2c(=O)on(C(=O)N(c3ccccc3)C(C)C)c2=O)s1 (stereo not drawn) [Compound 442],Velvetleaf plant response rating,velvetleaf; [30],0
same,Velvetleaf plant response rating,velvetleaf; [31],0
same,"Plant response rating, Velvetleaf",velvetleaf; [2],0
same,"Plant response rating, Velvetleaf",velvetleaf; [19],0
same,Velvetleaf plant response rating,velvetleaf; [32],0
same,Velvetleaf plant response rating,velvetleaf; [12],0
same,Velvetleaf plant response rating,velvetleaf; [33],0
same,Cocklebur plant response rating,cocklebur; [30],0
same,Cocklebur plant response rating,cocklebur; [31],0
same,Cocklebur plant response rating,cocklebur; [1],0
same,"Plant response rating, Cocklebur",cocklebur; [2],0
same,"Plant response rating, Cocklebur",cocklebur; [19],0
same,Cocklebur plant response rating,cocklebur; [32],0
same,Cocklebur plant response rating,cocklebur; [12],0
same,Cocklebur plant response rating,cocklebur; [33],0
same,Soybean plant response rating,soybean; [30],0
same,Soybean plant response rating,soybean; [31],0
same,"Plant response rating, Soybean",soybean; [2],0
same,"Plant response rating, Soybean",soybean; [19],0
same,Soybean plant response rating,soybean; [32],0
same,Soybean plant response rating,soybean; [12],0
same,Soybean plant response rating,soybean; [33],0
same,Ducksalad plant response rating,duck salad; [7],0
same,"Plant response rating, Ducksalad (0 to 10 scale, 0 is no effect, 10 is complete control)",duck salad; [22],0
same,"Ducksalad plant response rating (0 to 10 scale, 0 is no effect, 10 is complete control)",duck salad; [23],0
same,Ducksalad plant response rating,duck salad; [24],0
CCN(C(=O)n1oc(=O)n(C2CCCCC2)c1=O)C1CCCCC1 [Compound 308],Velvetleaf plant response rating,velvetleaf; [2],0
same,Velvetleaf plant response rating (0 to 10 scale),"velvetleaf; Preemergence, Rate 125 g/ha",0
same,Velvetleaf plant response rating,velvetleaf; [3],0
same,Velvetleaf plant response rating,velvetleaf; [11],0
same,Velvetleaf plant response rating,velvetleaf; [12],0
same,Velvetleaf plant response rating,velvetleaf; [13],0
same,"Plant response rating, Velvetleaf",velvetleaf; [14],0
same,Cocklebur plant response rating,cocklebur; [2],0
same,Cocklebur plant response rating (0 to 10 scale),"cocklebur; Preemergence, Rate 125 g/ha",0
same,Cocklebur plant response rating,cocklebur; [3],0
same,Cocklebur plant response rating,cocklebur; [11],0
same,Cocklebur plant response rating,cocklebur; [12],0
same,Cocklebur plant response rating,cocklebur; [13],0
same,"Plant response rating, Cocklebur",cocklebur; [14],0
same,Cocklebur plant response rating,cocklebur; [15],0
same,Soybean plant response rating,soybean; [2],0
same,Soybean plant response rating (0 to 10 scale),"soybean; Preemergence, Rate 125 g/ha",0
same,Soybean plant response rating,soybean; [3],0
same,Soybean plant response rating,soybean; [11],0
same,Soybean plant response rating,soybean; [12],1
same,Soybean plant response rating,soybean; [13],1
same,"Plant response rating, Soybean",soybean; [14],1
same,Ducksalad plant response rating,"duck salad; Pre-emergence, Rate 1000 g/ha, scale 0 to 10 (0 no effect, 10 complete control)",0
same,Ducksalad plant response rating,duck salad; [9],0
same,Ducksalad plant response rating,duck salad; [10],0
same,Ducksalad plant response rating,duck salad; [16],0
